Measured values reported in publication PMC10119930, “Dual Molecules Targeting 5-HT6 and GABA-A Receptors as a New Approach to Combat Depression Associated with Neuroinflammation” (ACS Chemical Neuroscience, 2023).
“And” between values parts separate entries of the source, which are not always exact repeats. Identical values can stand only once. Like-named read-outs stand apart in the source and are kept apart here.

How the values were obtained:
[1] = molecular target: muscimol site of the GABA-A receptor; assay: Radioligand binding assay for GABA-A receptor ([3H]muscimol displacement, rat brain homogenate); settings: competitive replacement of [3H]muscimol; ±S.E.M.
Description: The study was acquired according to the earlier protocols.[39] The rats’ brains were homogenized and prepared accurately according to the previous protocol.[39] On the day of the study, brain homogenates were thawed at room temperature and “diluted” in 20 volumes of ice-cold 50 mM Tris-HCl buffer (pH 7.4) and centrifuged (20.000g, 30 min, 0–4 °C). The assay was performed directly on 96-well microplates, which contained 50 mM Tris-HCl buffer (pH 7.4) in a total volume of 300 μL. Reaction mix included 240 μL of the brain tissue suspension, 30 μL of [^3H]-muscimol, and 30 μL solution of tested compounds (administrated at various concentrations: 10^–10–10^–5 M). […] The 96-well microplates containing the reaction mix were incubated for 10 min at 0 °C, followed by rapid filtration over glass fiber filters FilterMate B (PerkinElmer, USA) using the Harvester-96 MACH III FM (Tomtec, USA). The filter mats were dried using a microwave and then placed inside a plastic bag (PerkinElmer, USA). After that, they were soaked in 10 mL of Ultima Gold MV liquid scintillation cocktail (PerkinElmer, USA). […] Ki values were estimated according to the Cheng and Prusoff equation. The study was performed in duplicates. The statistical analysis was performed using (GraphPad Prism, version 4.0, San Diego, CA, USA).

5-HT6 receptor [2] = molecular target: T1, 5-HT6 receptor (Homo sapiens, UniProt P50406); assay: Radioligand binding assay for 5-HT6 receptor ([3H]-LSD displacement); set-up: expressed in transfected cells; host or cells: HEK-293 (cryopreserved membranes); settings: for Ki: competitive replacement of [3H]-LSD, ±S.E.M.
Description: To determine the affinity for 5-HT6, the cryopreserved membranes from HEK-293 cells stably transfected with the human recombinant 5-HT6 receptor were used.[40] Preparation of the tested compounds included preparation of stock solutions in DMSO (1 mM) and subsequent serial dilutions (10^–10–10^–5 M) of tested compounds in the appropriate buffer (50 mM Tris buffer, pH 7.4, 10 mM MgCl2, 0.5 mM ethylenediaminetetraacetic acid). The serial dilutions were acquired directly on a 96-well microplate. The reaction mix included 50 μL of appropriate concentration of tested molecule, 50 μL of [^3H]LSD 2.5/2.0 nM, and 150 μL of diluted membranes. The microplate containing the reaction mix was protected with a sealing tape and incubated for 60 min at 37 °C. Quenching of the reaction mixtire included: rapid filtration through UniFilter 96 GF/B filter microplate and rapid washes using 200 μL 50 mM assay buffer and vacuum manifold and 96-well pipettor. The collected microplates were dried overnight at 37 °C. The UniFilter bottoms were sealed, and then 30 μL of Betaplate Scint liquid scintillator (PerkinElmer) was added to each well. […] The obtained data were fit to a one-site curve-fitting equation using Prism 5 software (GraphPad Software), and the Ki values were determined using the Cheng–Prusoff equation. Radioligand binding was performed in duplicates.

[3] = system: human α1β2γ2-GABA-A receptors; assay: Electrophysiological studies, automated patch clamp (QPatch16X), HEK293 cells; format: cell-based; settings: agonist mode, compound at 10 μM; current amplitude normalized to 10 μM GABA response; ±S.E.M.
Description: Electrophysiological studies were acquired using the QPatch16X automatic patch clamp platform (Sophion Biosciences) as described before.[42],[43] […] Before the assay, cells were detached from the culture flask by treating them with TrypLE Express solution (Life Technologies) and subsequently suspended in serum-free media. The cells were loaded into a 1.5 mL microtube on the automated electrophysiology instrument, which subsequently performed a spin-down using its built-in centrifuge. Following this, the cells were washed with Ringer’s extracellular solution. The cells were moved to the pipetting wells of a 16-channel planar patch chip plate (QPlate 16X) designed for single-use. A combined suction/voltage protocol was then applied to establish gigaseals. […] During the entire whole-cell recording, the holding potential was maintained at −90 mV. […] The intracellular solution contained 140 mM CsF, 1 mM EGTA, 5 mM CsOH, 10 mM HEPES, 20 mMNaCl (pH 7.2, 320 mOsm). […] The acquired data were examined with QPatch assay software (v5.0, Sophion Biosciences)[44] and are represented as the mean of three separated measurements performed on distinct cells. The efficacy of the tested molecules was determined by calculating the baseline-corrected ratio of the maximum current amplitudes elicited by the tested compounds and the reference agonist (T1-ATG/AG1-ATG or T2-ATG/AG1-ATG). The raw current recordings were standardized and presented as a percentage of the current amplitude evoked by the reference agonist, using the QPatch assay software (v5.0, Sophion Biosciences).

5-HT6 receptor [4] = molecular target: T1, 5-HT6 receptor; assay: Functional assay for 5-HT6 receptor, antagonist mode (aequorin, CHO-K1 cells); format: cell-based; set-up: expressed in transfected cells; host or cells: CHO-K1 (co-expressing mitochondrially targeted aequorin and G protein α16); settings: ±S.E.M., read-out: 5-HT6 R KB
Description: The studies were acquired according to previous protocols.[41] All the examined compounds (novel and the reference) were dissolved in DMSO (1 mM) and diluted accordingly using the assay buffer, directly in 96-well microplate. The recombinant CHO-K1 cells expressing human GPCR, mitochondrially targeted aequorin, and the promiscuous G protein α16 specific for 5-HT6 were used for the functional assay. The cells were thawed and suspended in the appropriate buffer containing DMEM/HAM’s F12 with 0.1% protease free BSA and were then centrifuged. After adding coelenterazine h to a final concentration of 5 μM, the cell pellet was resuspended in the buffer. The cell suspension was incubated at 16 °C for 16 h while being protected from light, gently shaken, and diluted with assay buffer to a concentration of 5000 cells/mL. Following that, 50 μL of the cell suspension was introduced to preloaded white opaque 96-well microplates containing the tested molecules. This was done using the automatic injectors integrated into the radiometric and luminescence plate counter MicroBeta2 LumiJET (PerkinElmer, USA). The light emission resulting from calcium mobilization was monitored for a duration of 60 s. For examination of the antagonistic properties of tested molecule, following 30 min of incubation, the reference agonist was administrated and the light emission was detected.

female Wistar rats [5] = assay: Forced swim test in rats; format: in vivo, rat
Description: (§1) Naïve female Wistar rats (weighing 180–200 g) were used in the study. The animals were housed in groups of three to four in standard Makrolon cages (37 cm × 21 cm × 15 cm) under strictly controlled laboratory conditions (ambient temperature 21–24 °C, relative humidity 45–65%) with a 12/12 h light–dark regime (light on at 6:00 a.m. and off at 6:00 p.m.). Animals had unrestricted access to tap water and food (typical pellets). Prior the experiment the animals were randomly appointed to the group. The behavioral studies were accomplished between 8:00 a.m. and 5:00 p.m. with the researcher blind to the study. The experiments were performed according to protocols approved by the Local Ethical Committee in Krakow (Approval Number 147/2018), Poland. Housing and experimental procedures were conducted under the European Union Directive of September 22, 2010 (2010/63/EU) and Polish legislation regarding animal studies. All efforts were made to minimize animal suffering and the number of animals used in the study.
(§2) Vortioxetine (Sigma, Germany) and the tested compounds (16 and 6) were dissolved in 10% cyclodextrin and administered ip 30 min before the test or during 14 consecutive days, with the last injection 60 min before the test. 10% cyclodextrin was administrated to control group.
(§3) A modified forced swim test was carried out according to Detke et al.[50],[51] First, the animals were individually placed inside Plexiglas cylinders, which were 40 cm high and 18 cm in diameter, filled with water at a temperature of 23–25 °C for 15 min. Afterward, the rats were transferred to a Plexiglas box and kept under a 60 W bulb for 30 min to dry. The day after, exactly 24 h later, the rats were once again placed in the cylinder, and their duration of immobility, swimming, and climbing was observed and recorded during a 5 min. The swimming behavior involved energetic movements such as horizontal swimming around the cylinder, while climbing activity referred to upward movements of the forepaws along the swim chamber’s side. Immobility was recorded when the rat only made necessary movements to keep its head above the water. For each test, a fresh water was provided. Open field test in rats: The test was conducted as previously reported by our research group.[52] The test was performed in a darkened room employing the Motor Monitor System (Campden Instruments, Ltd., U.K.). The system was equipped with two SmartFrame Open Field stations, each measuring 40 cm × 40 cm × 38 cm and consisting of 16 × 16 beams. These stations were placed inside sound-attenuating chambers and connected to a PC software using […]. The animals, belonging to either the vehicle-injected or drug-injected group, were individually positioned at the center of the station. The Motor Monitor System, which was automated, recorded the animal’s ambulation in both the X and Y axes, as well as the number of rearing and peeping episodes. Additionally, the total distance traveled by each animal during the 5 min test period was also recorded. Statistical analysis: Results are presented as the mean ± SEM values. They were estimated using one-way analysis of variance (ANOVA), followed by Newman–Keuls post hoc or unpaired two-tailed Student t test. Statistical significance was considered when p < 0.05 for differences between groups.

female Wistar rats [6] = assay: Open field test in rats (locomotor activity); format: in vivo, rat; set-up: total distance traveled: unit not given here; settings: chronic treatment, dose 8, ip 14 days
Description: as §1, §2, §3

[7] = acute, 8 mg/kg ip 30 min before test

T1 sequence (P50406 whole entry): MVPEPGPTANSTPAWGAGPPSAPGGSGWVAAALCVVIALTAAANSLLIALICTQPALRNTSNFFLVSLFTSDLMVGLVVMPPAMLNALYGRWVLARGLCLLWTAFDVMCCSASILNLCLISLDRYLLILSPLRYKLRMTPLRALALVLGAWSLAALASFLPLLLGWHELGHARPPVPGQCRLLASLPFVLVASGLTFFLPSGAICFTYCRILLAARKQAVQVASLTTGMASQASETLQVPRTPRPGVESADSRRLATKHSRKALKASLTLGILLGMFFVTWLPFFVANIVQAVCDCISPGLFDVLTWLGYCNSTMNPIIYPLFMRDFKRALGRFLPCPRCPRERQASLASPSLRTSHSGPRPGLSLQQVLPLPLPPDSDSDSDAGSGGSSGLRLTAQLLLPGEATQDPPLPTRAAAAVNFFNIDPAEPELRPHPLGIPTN

SMILES | Ki [1] | Ki (5-HT6 receptor [2]; read-out: 5-HT6R Ki) | Kb (5-HT6 receptor [4]) | Ki (5-HT6 receptor [2]; 5-HT6R Ki) | other results
Cl.Cl.NCCCC(=O)OCCN1CCN(c2cccc3c2OCC(=O)N3Cc2ccccc2)CC1 [Compound 19, 1-(2-((4-Ammoniobutanoyl)oxy)ethyl)-4-(4-benzyl-3-oxo-3,4-dihydro-2H-benzo[b][1,4]oxazin-8-yl)piperazin-1-ium Dichloride] | 247 ± 24.7 nM | 25 ± 1 nM | 7 ± 0.1 nM | – | fold higher 5-HT6 affinity compared to 18 (5-HT6 receptor [2]; ratio of Ki values): 5 fold; [%] of 10 μM GABA activity [3]: 9.5% and 9.5 ± 3.5%
O=c1oc2c(N3CCNCC3)cccc2n1Cc1ccccc1 [Compound 3, 3-Benzyl-7-(piperazin-1-yl)benzo[d]oxazol-2(3H)-one] | – | – | – | 4 ± 0.2 nM | –
O=c1oc2c(N3CCN(CCO)CC3)cccc2n1Cc1ccccc1 [Compound 8, 3-Benzyl-7-(4-(2-hydroxyethyl)piperazin-1-yl)benzo[d]oxazol-2(3H)-one] | – | 150 ± 7.6 nM | – | – | –
O=c1[nH]c2c(N3CCN(CCO)CC3)cccc2n1Cc1ccccc1 [Compound 7, 1-Benzyl-4-(4-(2-hydroxyethyl)piperazin-1-yl)-1,3-dihydro-2H-benzo[d]imidazol-2-one] | – | 40 ± 3 nM | – | – | –
NCCCC(=O)OCCN1CCN(c2cccc3c2[nH]c(=O)n3Cc2ccccc2)CC1 [Compound 17, 1-(2-((4-Ammoniobutanoyl)oxy)ethyl)-4-(1-benzyl-2-oxo-2,3-dihydro-1H-benzo[d]imidazol-4-yl)piperazin-1-ium Dichloride] | 592 ± 52.5 nM | 57 ± 5.9 nM | 193 ± 3.5 nM | – | –
O=C1COc2c(N3CCNCC3)cccc2N1Cc1ccccc1 [Compound 4, 4-benzyl-8-(piperazin-1-yl)-2H-benzo[b][1,4]oxazin-3(4H)-one] | – | – | – | 1 ± 0.2 nM | –
O=C1COc2c(N3CCN(CCO)CC3)cccc2N1Cc1ccccc1 [Compound 9, 4-Benzyl-8-(4-(2-hydroxyethyl)piperazin-1-yl)-2H-benzo[b][1,4]oxazin-3(4H)-one] | – | 4 ± 0.4 nM | – | – | –
NCCCC(=O)OCCN1CCN(c2cccc3c2OCCN3Cc2ccccc2)CC1 [Compound 20, 1-(2-((4-Ammoniobutanoyl)oxy)ethyl)-4-(4-benzyl-3,4-dihydro-2H-benzo[b][1,4]oxazin-8-yl)piperazin-1-ium Dichloride] | 184 ± 4 nM | 1260 ± 82 nM | 1670 ± 1 nM | – | –
OCCN1CCN(c2cccc3c2OCCN3Cc2ccccc2)CC1 [Compound 10, 2-(4-(4-Benzyl-3,4-dihydro-2H-benzo[b][1,4]oxazin-8-yl)piperazin-1-yl)ethan-1-ol] | – | 24 ± 2 nM | – | – | –
c1ccc(CN2CCOc3c(N4CCNCC4)cccc32)cc1 [Compound 5, 4-(4-Benzyl-3,4-dihydro-2H-benzo[b][1,4]oxazin-8-yl)piperazin-1-ium Chloride] | – | – | – | 60 ± 7.5 nM | –
Cc1ccc(Sc2ccccc2N2CCNCC2)c(C)c1 [vortioxetine, Vortioxetine, reference compound] | – | – | – | – | climbing (female Wistar rats [5]; [7]): had no impact; prolongation of swimming time (female Wistar rats [5]; [7]): 88.1%; reduction of immobility time (female Wistar rats [5]; [7]): 24.7%; decrease of immobility time vs vehicle-treated group (female Wistar rats [5]; subchronic, 8 mg/kg ip for 14 days, test 60 min after last injection): 19.5%; X ambulation (female Wistar rats [6]): 260.1; Y ambulation (female Wistar rats [6]): 265.9; rearing (female Wistar rats [6]): 50.6; total distance traveled (female Wistar rats [6]): 2753
Cl.Cl.NCCCC(=O)OCCN1CCN(c2cccc3c2oc(=O)n3Cc2ccccc2)CC1 [Compound 18, 1-(2-((4-Ammoniobutanoyl)oxy)ethyl)-4-(3-benzyl-2-oxo-2,3-dihydrobenzo[d]oxazol-7-yl)piperazin-1-ium Dichloride] | 229 ± 28 nM | 130 ± 12 nM | 245 ± 0.7 nM | – | [%] of 10 μM GABA activity [3]: 14.0% and 14.0 ± 2.6%
O=c1[nH]c2c(N3CCNCC3)cccc2n1Cc1ccccc1 [Compound 2, 1-benzyl-4-(piperazin-1-yl)-1,3-dihydro-2H-benzo[d]imidazol-2-one] | – | – | – | 0.2 ± 0.02 nM | –
